Tests used:
[1] = penetration of PG into human nails; conditions: 30 minutes after application of a thin layer to nail surface, adults
[2] = repeated application to normal skin of adults without acne; conditions: applied repeatedly to face and arm, 2 adults, several days
wart = conditions: conventional treatment; cited from earlier work

SMILES	absorption into nails [1]	adverse reactions on normal skin [2]	time for wart removal process (wart) [weeks]
CC(O)CO (stereo not drawn) [100% PG, propylene glycol]	virtually no PG can be found on the nail surface	No adverse reactions were observed	–
O=C(O)c1ccccc1O [high strength salicylic acid, salicylic acid]	–	–	6 to 12

Source: patent US8513225B2, “Composition and method for topical treatment of skin lesions” (Winlind Skincare, LLC, priority 2008, dated 2013)
